What is called Kd is the concentration at which binding is half-saturated.

For one test, the target named is αvβ3 integrin (Homo sapiens, UniProt P05106+P06756). In words: Competitive integrin binding assay (PVs mixed with free ligand 10). Particulars: read-out: concentration of free ligand 10 to achieve 50% inhibition of PV binding; against PV1 carrying the equivalent of 0.5 μM of 10 on its surface.
The test system of test [1] is collagen receptors (α2β1 integrins). Nature of the test: Cell adhesion assay on plates coated with collagen. It is filed as cell-based. As for the experimental part:
The cell adhesion assay was also performed with plates coated with collagen. Collagen binds to collagen receptors (α2β1 integrins) but not αvβ3 integrins. […] Without being bound by theory, it is believed that the observed inhibition of cell adhesion by PV-integrin agonist is due to the PV preventing interaction of collagen and its receptor by steric hindrance, due to the large size of the PV. Thus, not only does the PV targeted to a specific receptor bind to the receptor on the cell surface, but it blocks access to adjacent receptors due to its steric bulk.

Test [2] concerns αvβ3 positive M21 Melanoma cells binding to vitronectin coated plates. In words: Cell adhesion inhibition assay on vitronectin coated plates. It is filed as cell-based, human. Particulars: 1 h incubation, PVs as equivalents of compound 10 on the surface, read-out: Cell Adhesion Assay IC50 (μM of 10 on NPs).
For test [3], the system named is MS1 mouse endothelial pancreatic islet cells. In words: In vitro cell proliferation assay (crystal violet), endothelial cells. It counts as cell-based. The following applies: murine endothelial cells. As for the experimental part: The effect of free doxorubicin or liposome-encapsulated doxorubicin on the cells was assayed calorimetrically by crystal violet staining method with slight modification. Mouse endothelial cells (ATCC# CRL-2279) and mouse melanoma cells (M2) were seeded in 96well flat-bottomed microtitre plates. The effect of the vesicles on cell proliferation was determined with cells near confluence (about 80%). The medium in each well was replaced with 100 ul of culture medium containing 250 ug/ml of vesicles containing doxorubicin. The mouse endothelial and melanoma cells were incubated for 1 hour at 37° C. and 5% CO2. After 1 hour incubation, the drug was removed, and compete medium that was lacking drug was added, and the cells were incubated for 48 hours at 37° C. and 5% CO2. The experiment was performed in duplicate. At the end of the incubation period, the cells were washed once with PBS and the cultures were fixed by 70% ethanol overnight. Next, the cells were stained with 100 ul of 0.1% crystal violet in 10% ethanol for 10 minutes at room temperature, and the cells were gently washed with water for 5 times. Next, 100 ul of 1% SDS was added to each well and the plates were placed on an orbital shaker for 15 minutes. After the crystal violet in cell membrane was removed with SDS, the plate was read at 590 nm. Finally, cell viability was evaluated as the mean value of optical density.

The next test concerns the target VEGFR1 (Homo sapiens, UniProt P17948). The following applies: affinity of VEGFR1 for VEGF; cited from earlier work.

“And” between values parts separate entries of the source, which are not always exact repeats. Equal entries are not always repeated.

Take “4-[2-(3,4,5,6-Tetrahydropyrimidin-2-ylamino)ethyloxy]-benzoyl-2-(S)amino Ethylsulfonylamino-β-alanine [Compound 10]”: the IC50 at αvβ3 integrin was 65 µM; in test [2], 64 µM and 63.9 µM. Besides, the “inhibition of cell adhesion to collagen coated plates” value in test [1] was “neither the PV alone nor the agonist alone inhibited cell adhesion”. Consider `COc1cccc2c1C(=O)c1c(O)c3c(c(O)c1C2=O)C[C@@](O)(C(=O)CO)C[C@@H]3O[C@H]1C[C@H](N)[C@H](O)[C@H](C)O1` [Doxorubicin, doxorubicin], for which the “effect on cell proliferation” value in test [3] was “significant reductions in cell proliferation”. As to VEGF, the Kd at VEGFR1 was 0.001 to 0.02 nM.

Source of the values: patent US20030133972A1, “Targeted multivalent macromolecules” (priority 2000, published 2003).
